Assay results as given in BindingDB's records for doi:10.1021/jm011081s (The Institute of Cancer Research, 2002).

Experiment: Growth inhibitory activity against mouse lymphoblastoid L1210TS cell line was determined as inhibition of thymidylate synthase

- IC50: > 50 µM
Compound: C#CCN(Cc1cc2c(=O)n(C)c(CN(CC)CC)nc2cc1Cl)c1ccc(C(=O)NCc2cccnc2)cc1 [4-[(7-Chloro-2-diethylaminomethyl-3-methyl-4-oxo-3,4-dihydro-quinazolin-6-ylmethyl)-prop-2-ynyl-amino]-N-pyridin-3-ylmethyl-benzamide]
